# Measured values as given in patent US20220259235A1, “EGFR Inhibitor, Composition, and Preparation Method Therefor” (BETTA PHARMACEUTICALS CO., LTD, priority 2019, published 2022).
# How the values were obtained:
# Ba/F3-L858R/T790M/C797S = Ba/F3-L858R/T790M/C797S (Homo sapiens, UniProt P00533, T790M/C797S/L858R, cells depend on it); test: Ba/F3-L858R/T790M/C797S cell proliferation assay (CellTiter Glo, 72 h); format: cell-based; details: CTG, numeric values, read-out: BaF3 L858R/T790M/C797S IC50
# Chain of Ba/F3-L858R/T790M/C797S (P00533 whole entry T790M/C797S/L858R): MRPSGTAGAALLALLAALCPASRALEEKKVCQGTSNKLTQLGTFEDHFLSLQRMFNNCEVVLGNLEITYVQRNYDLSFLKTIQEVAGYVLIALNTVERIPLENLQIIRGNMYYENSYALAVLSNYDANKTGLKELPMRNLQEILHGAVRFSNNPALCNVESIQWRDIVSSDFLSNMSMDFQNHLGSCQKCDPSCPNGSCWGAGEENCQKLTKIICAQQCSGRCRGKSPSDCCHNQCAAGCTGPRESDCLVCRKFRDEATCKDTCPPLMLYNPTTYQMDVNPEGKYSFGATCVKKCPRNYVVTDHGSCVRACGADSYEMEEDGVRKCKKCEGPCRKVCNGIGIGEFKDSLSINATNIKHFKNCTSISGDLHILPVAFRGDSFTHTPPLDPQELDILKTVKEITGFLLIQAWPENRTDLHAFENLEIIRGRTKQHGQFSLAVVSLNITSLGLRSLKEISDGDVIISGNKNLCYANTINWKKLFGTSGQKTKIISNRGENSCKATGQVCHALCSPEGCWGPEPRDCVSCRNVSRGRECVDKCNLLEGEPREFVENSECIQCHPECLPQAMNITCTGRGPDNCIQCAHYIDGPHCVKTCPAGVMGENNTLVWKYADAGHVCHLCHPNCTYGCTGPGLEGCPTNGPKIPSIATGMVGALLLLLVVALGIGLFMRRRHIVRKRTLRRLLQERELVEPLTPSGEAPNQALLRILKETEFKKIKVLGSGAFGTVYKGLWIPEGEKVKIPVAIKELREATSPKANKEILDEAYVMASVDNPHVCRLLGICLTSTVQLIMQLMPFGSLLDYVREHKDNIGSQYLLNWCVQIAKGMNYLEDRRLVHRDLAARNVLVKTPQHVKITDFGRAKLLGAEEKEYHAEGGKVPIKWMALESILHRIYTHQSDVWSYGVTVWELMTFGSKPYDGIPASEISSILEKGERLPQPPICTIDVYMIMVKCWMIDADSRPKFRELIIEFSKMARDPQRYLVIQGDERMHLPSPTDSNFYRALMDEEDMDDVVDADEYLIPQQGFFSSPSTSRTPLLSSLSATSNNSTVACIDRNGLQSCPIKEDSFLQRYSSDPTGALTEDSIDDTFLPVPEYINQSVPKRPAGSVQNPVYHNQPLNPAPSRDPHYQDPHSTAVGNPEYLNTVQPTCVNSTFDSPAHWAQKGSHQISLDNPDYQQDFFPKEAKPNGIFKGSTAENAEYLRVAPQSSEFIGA
# Description: (§1) Cell line: Ba/F3 cells with stable overexpression of Δ19del/T790M/C797S or L858R/T790M/C797S mutant genes, named Ba/F3-Δ19del/T790M/C797S and Ba/F3-L858R/T790M/C797S, and A431 EGFR wild-type cell line.
# (§2) RPMI 1640 and 10% FBS and 1% PS; _EM, 10% PBS and 1% PS
# (§3) a) Dilute the test compound (20 mM stock solution) to 10 mM with 100% DMSO as the starting concentration, and then serially dilute 3 times with a “9+0” concentration in 96-well dilution plate (Cat #P-05525, Labcyte);
# (§4) b) Dilute compound solution thereof to 1:100 in medium to prepare 10-fold working solution;
# (§5) a) Centrifuge the growth cells in logarithmic phase at 1000 rpm for 5 minutes, resuspend the cells in culture medium, and then count the cells;
# (§6) b) Inoculate the cells into a 96-well cell culture plate with a density of 2000 cells/well;
# (§7) a) The compound prepared in Step 2 was added to a cell plate with 15 μL per well at final concentrations of 1000, 333, 111.1, 37, 12.3, 4.1, 1.4, 0.5, 0.2, and 0 nM. The final concentration of DMSO was 0.1%. The blank control well is with medium (0.1% DMSO).
# (§8) b) Incubate cells in an incubatorother 72 hours;
# (§9) a) Take out the 96-well cell culture plate and add 50 μl CTG reagent (CellTiter Glo kit, promega, Cat #G7573);
# (§10) b) Shake the plate for 2 minutes and let cool at room temperature for 10 minutes,
# (§11) c) Read luminous signal value with Perkin Elmer reader.
# (§12) Analysis of Experimental Data
# (§13) The data were analyzed by GraphPad Prism 6.0 software to obtain the fitting curve of compound activity.
# (§14) Fining compound IC50 from nonlinear regression equation:
# (§15) Y=Min+(Max−Min)/(1+10^((LogIC50−X)*slope));
# (§16) X: Logarithm of compound concentration; Y: luminous signal
# (§17) As illustrated in examples, IC50 value is within the following range for the compound of the present invention: “A” represents “IC50≤50 nM”; “B” represents “50 nM<IC50<100 nM”.
# Ba/F3-Δ19del/T790M/C797S = Ba/F3-Δ19del/T790M/C797S (Homo sapiens, UniProt P00533, T790M/C797S, cells depend on it, form not given); test: Ba/F3-Δ19del/T790M/C797S cell proliferation assay (CellTiter Glo, 72 h); format: cell-based; details: CTG, numeric values, read-out: BaF3 Δ19del/T790M/C797S IC50
# Chain of Ba/F3-Δ19del/T790M/C797S (P00533 with tags, fused parts or gaps DEL746-750/T790M/C797S, form open): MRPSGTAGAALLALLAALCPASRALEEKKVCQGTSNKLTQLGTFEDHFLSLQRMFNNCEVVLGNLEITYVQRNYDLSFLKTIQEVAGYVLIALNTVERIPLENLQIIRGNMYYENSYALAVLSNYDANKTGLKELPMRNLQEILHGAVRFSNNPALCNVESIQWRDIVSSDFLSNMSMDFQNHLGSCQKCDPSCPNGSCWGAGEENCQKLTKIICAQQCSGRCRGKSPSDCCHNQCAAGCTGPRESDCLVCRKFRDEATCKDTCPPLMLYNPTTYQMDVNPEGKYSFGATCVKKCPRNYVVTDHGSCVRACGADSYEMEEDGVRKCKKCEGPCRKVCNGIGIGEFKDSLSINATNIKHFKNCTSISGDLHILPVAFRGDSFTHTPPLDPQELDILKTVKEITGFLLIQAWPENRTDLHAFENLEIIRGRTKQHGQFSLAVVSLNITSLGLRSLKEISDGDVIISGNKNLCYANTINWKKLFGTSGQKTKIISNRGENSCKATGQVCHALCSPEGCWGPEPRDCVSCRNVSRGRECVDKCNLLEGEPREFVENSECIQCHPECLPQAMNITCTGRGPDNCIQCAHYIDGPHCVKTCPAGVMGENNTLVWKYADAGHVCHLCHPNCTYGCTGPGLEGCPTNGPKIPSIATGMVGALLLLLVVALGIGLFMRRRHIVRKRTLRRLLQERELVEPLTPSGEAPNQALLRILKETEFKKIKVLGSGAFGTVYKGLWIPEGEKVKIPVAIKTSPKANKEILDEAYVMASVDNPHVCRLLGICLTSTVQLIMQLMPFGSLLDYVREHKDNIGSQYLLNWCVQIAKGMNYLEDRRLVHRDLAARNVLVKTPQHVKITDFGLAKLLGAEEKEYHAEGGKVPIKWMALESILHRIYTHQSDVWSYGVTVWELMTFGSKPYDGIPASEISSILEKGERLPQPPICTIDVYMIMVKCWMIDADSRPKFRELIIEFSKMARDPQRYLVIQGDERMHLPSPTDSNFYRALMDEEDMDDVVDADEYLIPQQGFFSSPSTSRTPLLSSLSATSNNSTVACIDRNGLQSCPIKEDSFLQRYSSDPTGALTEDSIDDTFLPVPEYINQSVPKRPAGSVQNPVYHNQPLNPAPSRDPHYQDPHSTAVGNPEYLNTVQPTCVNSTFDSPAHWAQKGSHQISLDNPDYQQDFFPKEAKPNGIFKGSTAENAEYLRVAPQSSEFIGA
# Description: as §1, §2, §3, §4, §5, §6, §7, §8, §9, §10, §11, §12, §13, §14, §15, §16, §17
# [1] = system: A431 EGFR wild-type cell line; test: A431 EGFR wild-type cell proliferation assay (CellTiter Glo, 72 h); format: cell-based; details: Homo sapiens, A-431, CTG, read-out: A431 EGFR WT IC50
# Description: as §1, §2, §3, §4, §5, §6, §7, §8, §9, §10, §11, §12, §13, §14, §15, §16, §17
# [2] = Liver microsomal clearance test, human; format: in vitro ADME; details: Human liver microsomes, 0.5 mg/mL, NADPH
# Description: (§18) Test 3 Liver Microsomal Clearance Test
# (§19) 1. Prepare 0.5 mg/mL liver microsome diluent containing K-butter and MgCl2:
# (§20) 2.1 Take 356 μL of the liver microsome diluent prepared above and add it to the preset wells of the incubation plate, the number of multiple wells n=1, mark it as the incubation plate.
# (§21) 2.2 Take 4 μL of the positive control compound Verapamil (50 μM) and the working solution of the test compound (200 μM) into the above incubation plate containing 356 μL of liver microsome diluent, and mix well (The dilution solvent from the stock solution to the working solution is a mixed solvent of acetonitrile: methanol: water=1:1:2, and the final concentration of DMSO is ≤0.5%),
# (§22) 2.3 Place the incubation plate in a 37° C. thermostatic oscillator (at shaking speed of 100 rpm) for pre-incubation with 10 min.
# (§23) 2.4 Add 40 μL of 10 mM NADPH (add 40 μL of K-buffer to the wells without NADPH) to each reaction well to start the reaction and start timing.
# (§24) 3. Sample collection and treatment:
# (§25) 3.1 After adding NADPH to start the reaction, immediately take out 50 μL of the sample and add it to the precipitation plate pre-added with 400 μL of stop solution, and shake on an oscillator at 600 rpm for 5 min at room temperature as a 0 min sample.
# (§26) 3.2 At the predetermined time points of 5 min, 15 min and 45 min, take out 50 μL of sample from the incubation plate and add it to the precipitation plate. The subsequent steps were the same as the treatment of 0 min sample. 3.3 After balancing, centrifuge above precipitation plate at 3200 rpm for 10 min at 4° C.
# (§27) 3.4 Take 50 μL of the supernatant after centrifugation and add it to pre-added 20% acetonitrile water at appropriate proportion, shake on an oscillator at 600 rpm for 2 min at room temperature, mix well, and put it into the LC-MS/MS sampler for sample injection.
# as §12
# 1. […]
# [3] = Liver microsomal clearance test, monkey; format: in vitro ADME; details: Monkey liver microsomes, 0.5 mg/mL, NADPH
# Description: as §18, §19, §20, §21, §22, §23, §24, §25, §26, §27, §12
# 1. […]
# [4] = Liver microsomal clearance test, dog; format: in vitro ADME; details: Dog liver microsomes, 0.5 mg/mL, NADPH
# Description: as §18, §19, §20, §21, §22, §23, §24, §25, §26, §27, §12
# 1. […]
# [5] = Liver microsomal clearance test, rat; format: in vitro ADME; details: Rat liver microsomes, 0.5 mg/mL, NADPH
# Description: as §18, §19, §20, §21, §22, §23, §24, §25, §26, §27, §12
# 1. […]
# [6] = Liver microsomal clearance test, mice; format: in vitro ADME; details: Mice liver microsomes, 0.5 mg/mL, NADPH
# Description: as §18, §19, §20, §21, §22, §23, §24, §25, §26, §27, §12
# 1. […]
# hERG protein = biological target: T1, hERG protein (Homo sapiens, UniProt Q12809); test: hERG IC50 test (tracer/membranes fluorescence polarization); format: binding; details: hERG membranes and tracer, read-out: IC50 results of hERG protein to compound
# T1 construct: purchased
# T1 sequence (Q12809 whole entry): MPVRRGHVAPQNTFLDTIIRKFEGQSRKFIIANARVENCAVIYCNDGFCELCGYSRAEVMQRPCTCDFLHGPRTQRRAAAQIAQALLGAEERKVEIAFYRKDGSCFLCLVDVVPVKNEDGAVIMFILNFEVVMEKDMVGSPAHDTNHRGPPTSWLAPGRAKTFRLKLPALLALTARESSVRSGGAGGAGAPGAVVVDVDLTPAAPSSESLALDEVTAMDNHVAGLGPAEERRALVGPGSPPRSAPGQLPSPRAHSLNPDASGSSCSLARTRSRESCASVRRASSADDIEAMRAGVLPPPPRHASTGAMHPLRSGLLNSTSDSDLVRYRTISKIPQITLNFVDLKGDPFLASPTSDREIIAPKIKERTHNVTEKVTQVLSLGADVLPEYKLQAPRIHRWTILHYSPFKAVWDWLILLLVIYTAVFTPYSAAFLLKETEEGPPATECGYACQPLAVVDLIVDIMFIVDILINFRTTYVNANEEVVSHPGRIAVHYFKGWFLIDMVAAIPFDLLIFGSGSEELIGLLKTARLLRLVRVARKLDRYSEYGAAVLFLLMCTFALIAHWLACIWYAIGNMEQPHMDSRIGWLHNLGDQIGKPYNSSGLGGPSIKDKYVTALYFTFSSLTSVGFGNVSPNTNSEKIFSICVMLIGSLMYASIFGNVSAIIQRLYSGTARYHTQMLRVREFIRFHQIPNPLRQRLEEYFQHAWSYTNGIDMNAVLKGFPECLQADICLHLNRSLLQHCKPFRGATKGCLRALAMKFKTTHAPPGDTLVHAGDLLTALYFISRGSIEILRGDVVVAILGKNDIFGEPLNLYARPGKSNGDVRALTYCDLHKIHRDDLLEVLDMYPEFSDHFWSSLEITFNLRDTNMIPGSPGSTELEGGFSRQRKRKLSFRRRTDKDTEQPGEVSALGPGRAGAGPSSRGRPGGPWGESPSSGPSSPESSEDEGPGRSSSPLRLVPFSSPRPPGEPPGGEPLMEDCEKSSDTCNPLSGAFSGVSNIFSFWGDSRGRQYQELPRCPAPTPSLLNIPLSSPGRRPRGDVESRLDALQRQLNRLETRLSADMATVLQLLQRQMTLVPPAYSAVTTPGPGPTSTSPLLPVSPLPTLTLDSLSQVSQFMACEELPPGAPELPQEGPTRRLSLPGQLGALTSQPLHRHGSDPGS
# Description: 1. Thaw hERG kits (Tracer, E-4031 and Membranes) at room temperature;
# 2. Add 10 μL of positive compound E-4031 and 10 μL of test compound (10 mM) to 384 well plate (Corning, Art. No. 3658);
# 3. E-4031 is sequentially 5-fold diluted by pure water (10 concentration points in total), and the test compound is sequentially 5-fold diluted by DMSO (10 concentration points in total).
# 4. Take 1 μL of all gradient concentrations and add them in parallel to the wells containing 24 μL Assay buffer, and dilute 25 times (take 3 μL of the maximum concentration of E-4031 and add it to 72 μL Assay buffer).
# 5. Add 10 μL Membranes to another black 384-well plate (Coming, Art.4511).
# 6. Take 5 μL of 25-fold diluted working solution of positive and test compounds, and add it to above-mentioned plate with 10 μL Membranes, 2 copies at each concentration.
# 7. Negative control: Add 5 μL Assay buffer to the well with 10 μL Membranes, 8 copies in parallel;
# 8. Positive control: Add 5 μL E-4031 (120 μM) to the well with 10 μL Membranes, 8 copies in parallel;
# 9. […]
# 10. Before measuring the fluorescence polarization, cover the analysis plate to protect the reagents from light and evaporation, and incubate at room temperature (20-25° C.) for 2 hours.
# 11. Read fluorescence polarization in PerkinElmer EnVision® Multilabel after incubation; […]
compound,measurement,setting,value
"COc1cc(N2CCC(N3CCN(C)CC3)CC2)c(C)cc1Nc1ncc(Br)c(Nc2ccc3nccnc3c2P(C)(C)=O)n1 [A, reference compound]",GI50,Ba/F3-L858R/T790M/C797S,16.7 nM
same,GI50,Ba/F3-Δ19del/T790M/C797S,22 nM
same,IC50,[1],375 nM
same,"Instrinsic clearance of liver microsomal protein, CLint",[2],17.4 μL/min/mg proteins
same,"Instrinsic clearance of liver microsomal protein, CLint",[3],65.4 μL/min/mg proteins
same,"Instrinsic clearance of liver microsomal protein, CLint",[4],15.6 μL/min/mg proteins
same,"Instrinsic clearance of liver microsomal protein, CLint",[5],22 μL/min/mg proteins
same,"Instrinsic clearance of liver microsomal protein, CLint",[6],16.4 μL/min/mg proteins
same,IC50,hERG protein,13500 nM
